PubChem BioAssay (NCI)
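Briefly, cells in 96-well plates were exposed to five compound concentrations for 48 h, and endpoints were estimated by linear interpolation. TGI denotes the concentration required for complete inhibition of growth.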

Tests used:
Assay in all cases: NCI tumour cell line growth inhibition, 48 h
[1] = tested on: P388 leukemia
[2] = tested on: HOP-18 NSCLC
[3] = tested on: SN12K1 renal
[4] = tested on: RXF-631 renal

Structure (SMILES) | TGI [1] [µM] | TGI [2] [µM] | TGI [3] [µM] | TGI [4] [µM]
Nc1ncnc2c1ncn2C1OC(COP(=O)(O)O)C(O)C1O (centres undefined) | > 37.3 | > 50 | > 50 | 
Cc1ccccc1C(=O)c1c(O)c2c(c(O)c1Br)CCCC2 |  | 25.2 |  | 
O=[N+]([O-])c1nc(-c2ccccn2)[nH]c1[N+](=O)[O-] |  |  |  | > 100
N/C(=N\N=C/c1ccccc1O)NO | 18.7 | > 100 | > 100 | 
CC[C@]1(O)C[C@H]2CN(CCc3c([nH]c4ccccc34)[C@@](C(=O)OC)(c3cc4c(cc3OC)N(C=O)[C@H]3[C@@](O)(C(=O)OC)[C@H](OC(C)=O)[C@]5(CC)C=CCN6CC[C@]43[C@@H]65)C2)C1 | 7.83 | 87.3 | 0.134 | 
COC1=C2CC(C)CC(OC)C(O)C(C)/C=C(\C)C(OC(N)=O)C(OC)/C=C\C=C(/C)C(=O)NC(=C(C=NC(C)(C)C)C1=O)C2=O (centres undefined) | 8.79 | 33.7 | 31.2 | 
